The source of these data is patent publication US11091478B2 (Fochon Pharmaceuticals, Ltd., priority 2017, dated 2021).

One test relates to RS4;11 cells. The experiment in a line: Cell proliferation assay (MTS), RS4;11 cells, 72 h. The conditions noted are these: Homo sapiens, RS4-11, 72 h. Type of test: cell-based. The method in brief:
(§1)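 Cells in RPMI-1640 with 10% FBS were seeded at 5000/well, left overnight at 37° C., 5% CO2, then exposed to compound at 10000 down to 1.5 nM (nine concentrations) for 72 h (RS4;11) or 120 h (DOHH2). Viability was read by MTS, 2 h, absorbance at 490/650 nm; IC50 calculated.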

In a further test the test system is DOHH2 cells. Description: Cell proliferation assay (MTS), DOHH2 cells, 120 h. The conditions noted are these: Homo sapiens, DOHH-2, 120 h. Type of test: cell-based. In outline: as §1

As for `CC1(C)CCC(CN2CCN(c3ccc(C(=O)NS(=O)(=O)c4cc5c(c([N+](=O)[O-])c4)N[C@@H](COC4CCOCC4)CO5)c(Oc4cnc5[nH]ccc5c4)c3)CC2)=C(c2ccc(Cl)cc2)C1` [Example 2-183, (S)-2-((1H-pyrrolo[2,3-b]pyridin-5-yl)oxy)-4-(4-((4′-chloro-5,5-dimethyl-3,4,5,6-tetra-hydro-[1,1′-biphenyl]-2-yl)methyl)piperazin-1-yl)-N-((5-nitro-3-(((tetrahydro-2H-pyran-4-yl)oxy)methyl)-3,4-dihydro-2H-benzo [b][1,4]oxazin-7-yl)sulfonyl)benzamide], the IC50 in the test on RS4;11 cells was determined as 4 nM; in the test on DOHH2 cells it was 20 nM.

Take `CC1(C)CCC(CN2CCN(c3ccc(C(=O)NS(=O)(=O)c4cc5c(c([N+](=O)[O-])c4)N[C@H](COC4CCOCC4)CO5)c(Oc4cnc5[nH]ccc5c4)c3)CC2)=C(c2ccc(Cl)cc2)C1` [Example 2-184, (R)-2-((1H-pyrrolo[2,3-b]pyridin-5-yl)oxy)-4-(4-((4′-chloro-5,5-dimethyl-3,4,5,6-tetra-hydro-[1,1′-biphenyl]-2-yl)methyl)piperazin-1-yl)-N-((5-nitro-3-(((tetrahydro-2H-pyran-4-yl)oxy)methyl)-3,4-dihydro-2H-benzo [b][1,4]oxazin-7-yl)sulfonyl)benzamide]: the 50% inhibitory concentration (IC50) in the test on RS4;11 cells is 3 nM; in the test with DOHH2 cells, 11 nM.

On to `CC1(C)CCC(CN2CCN(c3ccc(C(=O)NS(=O)(=O)c4cc5c(c([N+](=O)[O-])c4)NC(C4CCOCC4)CO5)c(Oc4cnc5[nH]ccc5c4)c3)CC2)=C(c2ccc(Cl)cc2)C1` (stereo not drawn) [Example 2-185, 2-((1H-pyrrolo[2,3-b]pyridin-5-yl)oxy)-4-(4-((4′-chloro-5,5-dimethyl-3,4,5,6-tetra-hydro[1,1′-biphenyl]-2-yl)methyl)piperazin-1-yl)-N-((5-nitro-3-(tetrahydro-2H-pyran-4-yl)-3,4-dihydro-2H-benzo[b][1,4]oxazin-7-yl)sulfonyl)benzamide], for which the IC50 in the test with RS4;11 cells was determined as 1 nM; in the test on DOHH2 cells, 3 nM.

With `CC1(C)CCC(CN2CCN(c3ccc(C(=O)NS(=O)(=O)c4cc5c(c([N+](=O)[O-])c4)N[C@H](C4CCOCC4)CO5)c(Oc4cnc5[nH]ccc5c4)c3)CC2)=C(c2ccc(Cl)cc2)C1` [Example 2-186, (R)-2-((1H-pyrrolo[2,3-b]pyridin-5-yl)oxy)-4-(4-((4′-chloro-5,5-dimethyl-3,4,5,6-tetra-hydro-[1,1′-biphenyl]-2-yl)methyl)piperazin-1-yl)-N-((5-nitro-3-(tetrahydro-2H-pyran-4-yl)-3,4-dihydro-2H-benzo[b][1,4]oxazin-7-yl)sulfonyl)benzamide], the IC50 turned out to be 1 nM with RS4;11 cells and 13 nM in the test on DOHH2 cells.

Take `CC1(C)CCC(CN2CCN(c3ccc(C(=O)NS(=O)(=O)c4cc5c(c([N+](=O)[O-])c4)N[C@@H](C4CCOCC4)CO5)c(Oc4cnc5[nH]ccc5c4)c3)CC2)=C(c2ccc(Cl)cc2)C1` [Example 2-187, (S)-2-((1H-pyrrolo[2,3-b]pyridin-5-yl)oxy)-4-(4-((4′-chloro-5,5-dimethyl-3,4,5,6-tetra-hydro-[1,1′-biphenyl]-2-yl)methyl)piperazin-1-yl)-N-((5-nitro-3-(tetrahydro-2H-pyran-4-yl)-3,4-dihydro-2H-benzo[b][1,4]oxazin-7-yl)sulfonyl)benzamide]: the IC50 in the test with RS4;11 cells was determined as 2 nM; in the test with DOHH2 cells, 14 nM.

With `CC1(C)CCC(CN2CCN(c3ccc(C(=O)NS(=O)(=O)c4cc5c(c([N+](=O)[O-])c4)NC(C4CCC(O)CC4)CO5)c(Oc4cnc5[nH]ccc5c4)c3)CC2)=C(c2ccc(Cl)cc2)C1` (stereo not drawn) [Example 2-188, 2-((1H-pyrrolo[2,3-b]pyridin-5-yl)oxy)-4-(4-((4′-chloro-5,5-dimethyl-3,4,5,6-tetrahydro-[1,1′-biphenyl]-2-yl)methyl)piperazin-1-yl)-N-((3-(4-hydroxycyclohexyl)-5-nitro-3,4-dihydro-2H-benzo[b][1,4]oxazin-7-yl)sulfonyl)benzamide], the values for the 50% inhibitory concentration (IC50) in the test with RS4;11 cells and in the test on DOHH2 cells were 1 nM and 19 nM, respectively.

For the compound `CC1(C)CCC(CN2CCN(c3ccc(C(=O)NS(=O)(=O)c4cc5c(c([N+](=O)[O-])c4)N[C@@H](Cc4ccccc4F)CO5)c(Oc4cnc5[nH]ccc5c4)c3)CC2)=C(c2ccc(Cl)cc2)C1` [Example 2-189, (S)-2-((1H-pyrrolo[2,3-b]pyridin-5-yl)oxy)-4-(4-((4′-chloro-5,5-dimethyl-3,4,5,6-tetra-hydro-[1,1′-biphenyl]-2-yl)methyl)piperazin-1-yl)-N-((3-(2-fluorobenzyl)-5-nitro-3,4-dihydro-2H-benzo[b][1,4]oxazin-7-yl)sulfo-nyl)benzamide], the figures for the IC50 with RS4;11 cells and with DOHH2 cells were 78 nM and 148 nM, respectively.

For `CC1(C)CCC(CN2CCN(c3ccc(C(=O)NS(=O)(=O)c4cc5c(c([N+](=O)[O-])c4)N[C@@H](Cc4ccc(F)cc4)CO5)c(Oc4cnc5[nH]ccc5c4)c3)CC2)=C(c2ccc(Cl)cc2)C1` [Example 2-190, (S)-2-((1H-pyrrolo[2,3-b]pyridin-5-yl)oxy)-4-(4-((4′-chloro-5,5-dimethyl-3,4,5,6-tetra-hydro-[1,1′-biphenyl]-2-yl)methyl)piperazin-1-yl)-N-((3-(4-fluorobenzyl)-5-nitro-3,4-dihydro-2H-benzo[b][1,4]oxazin-7-yl)sulfo-nyl)benzamide], the IC50 in the test on RS4;11 cells stood at 8 nM; in the test with DOHH2 cells it was 25 nM.

For `CC1(C)CCC(CN2CCN(c3ccc(C(=O)NS(=O)(=O)c4cc5c(c([N+](=O)[O-])c4)N[C@@H](Cc4ccc(S(C)(=O)=O)cn4)CO5)c(Oc4cnc5[nH]ccc5c4)c3)CC2)=C(c2ccc(Cl)cc2)C1` [Example 2-192, (S)-2-((1H-pyrrolo[2,3-b]pyridin-5-yl)oxy)-4-(4-((4′-chloro-5,5-dimethyl-3,4,5,6-tetra-hydro-[1,1′-biphenyl]-2-yl)methyl)piperazin-1-yl)-N-((3-((5-(methylsulfonyl)pyridin-2-yl)methyl)-5-nitro-3,4-dihydro-2H-benzo [b][1,4]oxazin-7-yl)sulfonyl)benzamide], the concentration for half-maximal inhibition (IC50) with RS4;11 cells is 5 nM; with DOHH2 cells, 143 nM.

As to `CN1CCC(C[C@H]2COc3cc(S(=O)(=O)NC(=O)c4ccc(N5CCN(CC6=C(c7ccc(Cl)cc7)CC(C)(C)CC6)CC5)cc4Oc4cnc5[nH]ccc5c4)cc([N+](=O)[O-])c3N2)CC1` [Example 2-193, (S)-2-((1H-pyrrolo[2,3-b]pyridin-5-yl)oxy)-4-(4-((4′-chloro-5,5-dimethyl-3,4,5,6-tetra-hydro-[1,1′-biphenyl]-2-yl)methyl)piperazin-1-yl)-N-((3-((1-methylpiperidin-4-yl)meth-yl)-5-nitro-3,4-dihydro-2H-benzo[b][1,4]oxazin-7-yl)sulfonyl)benzamide], the concentration for half-maximal inhibition (IC50) came to 1 nM with RS4;11 cells and 28 nM in the test on DOHH2 cells.

Take `CC(=O)N1CCC(C[C@H]2COc3cc(S(=O)(=O)NC(=O)c4ccc(N5CCN(CC6=C(c7ccc(Cl)cc7)CC(C)(C)CC6)CC5)cc4Oc4cnc5[nH]ccc5c4)cc([N+](=O)[O-])c3N2)CC1` [Example 2-194, (S)-2-((1H-pyrrolo[2,3-b]pyridin-5-yl)oxy)-N-((3-((1-acetylpiperidin-4-yl)methyl)-5-nitro-3,4-dihydro-2H-benzo[b][1,4]oxazin-7-yl)sulfonyl)-4-(4-((4′-chloro-5,5-dimethyl-3,4,5,6-tetrahydro-[1,1′-biphenyl]-2-yl)meth-yl)piperazin-1-yl)benzamide]: the figures for the half-inhibitory concentration (IC50) in the test with RS4;11 cells and in the test with DOHH2 cells were 5 nM and 74 nM, respectively.

As to `COC(=O)N1CCC(C[C@H]2COc3cc(S(=O)(=O)NC(=O)c4ccc(N5CCN(CC6=C(c7ccc(Cl)cc7)CC(C)(C)CC6)CC5)cc4Oc4cnc5[nH]ccc5c4)cc([N+](=O)[O-])c3N2)CC1` [Example 2-195, methyl (S)-4-((7-(N-(2-((1H-pyrrolo[2,3-b]pyridin-5-yl)oxy)-4-(4-((4′-chloro-5,5-dimethyl-3,4,5,6-tetrahydro-[1,1′-biphenyl]-2-yl)methyl)piperazin-1-yl)benzoyl)sulfamoyl)-5-nitro-3,4-dihydro-2H-benzo[b][1,4]oxazin-3-yl)methyl)piperidine-1-carboxylate], the figures for the IC50 with RS4;11 cells and in the test on DOHH2 cells were 4 nM and 138 nM, respectively.

As to `CC1(C)CCC(CN2CCN(c3ccc(C(=O)NS(=O)(=O)c4cc5c(c([N+](=O)[O-])c4)N[C@@H](CC4CCN(S(C)(=O)=O)CC4)CO5)c(Oc4cnc5[nH]ccc5c4)c3)CC2)=C(c2ccc(Cl)cc2)C1` [Example 2-196, (S)-2-((1H-pyrrolo[2,3-b]pyridin-5-yl)oxy)-4-(4-((4′-chloro-5,5-dimethyl-3,4,5,6-tetra-hydro-[1,1′-biphenyl]-2-yl)methyl)piperazin-1-yl)-N-((3-((1-(methysulfonyl)piperidin-4-yl)methyl)-5-nitro-3,4-dihydro-2H-benzo[b][1,4]oxazin-7-yl)sulfonyl)benzamide], the half-maximal inhibitory concentration (IC50) came out at 6 nM in the test on RS4;11 cells and 94 nM in the test with DOHH2 cells.

For the compound `CC1(C)CCC(CN2CCN(c3ccc(C(=O)NS(=O)(=O)c4cc5c(c([N+](=O)[O-])c4)N[C@H](Cc4ccccn4)CO5)c(Oc4cnc5[nH]ccc5c4)c3)CC2)=C(c2ccc(Cl)cc2)C1` [Example 2-199, (R)-2-((1H-pyrrolo[2,3-b]pyridin-5-yl)oxy)-4-(4-((4′-chloro-5,5-dimethyl-3,4,5,6-tetra-hydro-[1,1′-biphenyl]-2-yl)methyl)piperazin-1-yl)-N-((5-nitro-3-(pyridin-2-ylmethyl)-3,4-dihydro-2H-benzo[b][1,4]oxazin-7-yl)sulfonyl)benzamide], the figures for the IC50 in the test with RS4;11 cells and with DOHH2 cells were 18 nM and 55 nM, respectively.

For `COc1ccc(C[C@@H]2COc3cc(S(=O)(=O)NC(=O)c4ccc(N5CCN(CC6=C(c7ccc(Cl)cc7)CC(C)(C)CC6)CC5)cc4Oc4cnc5[nH]ccc5c4)cc([N+](=O)[O-])c3N2)nc1` [Example 2-200, (R)-2-((1H-pyrrolo[2,3-b]pyridin-5-yl)oxy)-4-(4-((4′-chloro-5,5-dimethyl-3,4,5,6-tetra-hydro-[1,1′-biphenyl]-2-yl)methyl)piperazin-1-yl)-N-((3-((5-methoxypyridin-2-yl)meth-yl)-5-nitro-3,4-dihydro-2H-benzo[b][1,4]oxazin-7-yl)sulfonyl)benzamide], the IC50 in the test with RS4;11 cells is 3 nM; with DOHH2 cells it was 218 nM.
